Experimental data published in patent publication US8637525B2, “Compounds for the reduction of beta-amyloid production” (Bristol-Myers Squibb Company, priority 2009, dated 2014).
Like-named read-outs stand apart in the source and are kept apart here.

Test system: Aβ1-42 production
Assay: Cellular assay for inhibition of Aβ1-42 production (H4 APP751 SWE clone 8.20)
Type: cell-based
Conditions: H4 APP751 SWE clone 8.20 cells, 19 h incubation
In short: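 19 h cell treatment, 37 °C/5% CO2. Detection of secreted Aβ42 in the cell plate: 565 (Aβ42-specific, Wallac) and 26D6 (N-terminal, APC), overnight 4 °C. IC50 from fitted curves.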

[1] = class symbols, read-out: Activity Rating (Aβ42 cellular IC50)
[2] = 19 h, class symbols, read-out: Activity Rating (Aβ42 cellular IC50)
[3] = 19 h, read-out: Activity Rating (Aβ42 cellular IC50), numeric value

IC50 [2] [nM]	also measured	SMILES
–	IC50 [1]: 1.5 to 9.9 nM	COc1cc(Nc2nc3c(c(N(C)C)n2)CCC3c2ccc(F)cc2)ccc1-n1cnc(Cl)c1 (single isomer, unassigned) [Example 46A, N^2-(4-(4-chloro-1H-imidazol-1-yl)-3-methoxyphenyl)-7-(4-fluorophenyl)-N^4,N^4-dimethyl-6,7-dihydro-5H-cyclopenta[d]pyrimidine-2,4-diamine]
–	IC50 [1]: 1.5 to 9.9 nM	CNc1nc(Nc2ccc(-n3ncnc3C)c(F)c2)nc2c1COCC2c1ccc(Cl)cc1 (single isomer, unassigned) [Example 69A, 8-(4-chlorophenyl)-N^2-(3-fluoro-4-(5-methyl-1H-1,2,4-triazol-1-yl)phenyl)-N^4-methyl-7,8-dihydro-5H-pyrano[4,3-d]pyrimidine-2,4-diamine]
10 to 100	–	CCNc1nc(Nc2ccc(-n3cnc(Cl)c3)c(OC)c2)nc2c1CCN(C)C2c1ccc(F)cc1 (stereo not shown) [Example 175, N2-(4-(4-chloro-1H-imidazol-1-yl)-3-methoxyphenyl)-N4-ethyl-8-(4-fluorophenyl)-7-methyl-5,6,7,8-tetrahydropyrido[3,4-d]pyrimidine-2,4-diamine]
1.5 to 9.9	–	CNc1nc(Nc2ccc(-n3cnc(C)c3)c(OC)c2)nc2c1COCC2c1ccc(Cl)cc1 (stereo not shown) [Example 70, 8-(4-chlorophenyl)-N^2-(3-methoxy-4-(4-methyl-1H-imidazol-1-yl)phenyl)-N^4-methyl-7,8-dihydro-5H-pyrano[4,3-d]pyrimidine-2,4-diamine]
1.5 to 9.9	–	CNc1nc(Nc2ccc(-n3cnc(C)n3)c(OC)c2)nc2c1CC[C@H]2c1ccc(Cl)cc1F (single isomer, unassigned) [Example 271A]
–	IC50 [3]: 8.1 nM	COc1cc(Nc2nc(NC3CCC3)c3c(n2)C(c2ccccc2)CC3)ccc1-n1cnc(Cl)c1 (stereo not shown) [Example 9, N2-(4-(4-chloro-1H-imidazol-1-yl)-3-methoxyphenyl)-N4-cyclobutyl-7-phenyl-6,7-dihydro-5H-cyclopenta[d]pyrimidine-2,4-diamine]
100 to 1000	–	COc1cc(Nc2ncc3c(n2)C(c2ccc(F)cc2)CCC3)ccc1-n1cnc(Cl)c1 (stereo not shown) [Example 128, N-(4-(4-Chloro-1H-imidazol-1-yl)-3-methoxyphenyl)-8-(4-fluorophenyl)-5,6,7,8-tetrahydroquinazolin-2-amine]
1.5 to 9.9	–	CNc1nc(Nc2ccc(-n3cnc(Cl)c3)c(OC)c2)nc2c1COCC2c1ccccc1 (single isomer, unassigned) [Example 51A, N^2-(4-(4-chloro-1H-imidazol-1-yl)-3-methoxyphenyl)-N^4-methyl-8-phenyl-7,8-dihydro-5H-pyrano[4,3-d]pyrimidine-2,4-diamine]
–	IC50 [3]: 33 nM	COc1cc(Nc2nc3c(c(N(C)C(C)=O)n2)CCC3c2ccccc2)ccc1-n1cnc(Cl)c1 (stereo not shown) [Example 212, N-(2-(4-(4-chloro-1H-imidazol-1-yl)-3-methoxyphenylamino)-7-phenyl-6,7-dihydro-5H-cyclopenta[d]pyrimidin-4-yl)-N-methylacetamide]
–	IC50 [1]: 10 to 100 nM	COc1cc(Nc2nc3c(c(N4CCCC4C)n2)CCC3c2ccc(F)cc2)ccc1-n1cnc(Cl)c1 (single isomer, unassigned) [Example 19, N-(4-(4-chloro-1H-imidazol-1-yl)-3-methoxyphenyl)-7-(4-fluorophenyl)-4-(2-methylpyrrolidin-1-yl)-6,7-dihydro-5H-cyclopenta[d]pyrimidin-2-amine]
–	IC50 [1]: 10 to 100 nM	CNc1nc(Nc2ccc(-n3ncnc3C)c(OC)c2)nc2c1CN(C)CC2c1ccc(F)cc1 (stereo not shown) [Example 199, 8-(4-fluorophenyl)-N2-(3-methoxy-4-(5-methyl-1H-1,2,4-triazol-1-yl)phenyl)-N4,6-dimethyl-5,6,7,8-tetrahydropyrido[4,3-d]pyrimidine-2,4-diamine]
–	IC50 [3]: 430 nM	CCNc1nc(Nc2ccc(-n3cnc(C)n3)c(F)c2)nc2c1CN(C(=O)C1CC1)CC2c1ccccc1 (stereo not shown) [Example 143B, cyclopropyl(4-(ethylamino)-2-(3-fluoro-4-(3-methyl-1H-1,2,4-triazol-1-yl)phenylamino)-8-phenyl-7,8-dihydropyrido[4,3-d]pyrimidin-6(5H)-yl)methanone]
–	IC50 [3]: 3700 nM	CNc1nc(Nc2ccc(F)cc2)nc2c1CCC2c1ccccc1 (stereo not shown) [Example 218, N2-(4-fluorophenyl)-N4-methyl-7-phenyl-6,7-dihydro-5H-cyclopenta[d]pyrimidine-2,4-diamine]
10 to 100	–	COc1cc(Nc2nc3c(c(N4CCC5(C4)OCCO5)n2)CCC3c2ccccc2)ccc1-n1cnc(Cl)c1 (stereo not shown) [Example 205, N-(4-(4-chloro-1H-imidazol-1-yl)-3-methoxyphenyl)-7-phenyl-4-(1,4-dioxa-7-azaspiro[4.4]nonan-7-yl)-6,7-dihydro-5H-cyclopenta[d]pyrimidin-2-amine]
1.5 to 9.9	–	CNc1nc(Nc2ccc(-n3cnc(Cl)c3)c(OC)c2)nc2c1CCC2c1ccc(F)c(F)c1 (racemic) [Example 96, N^2-(4-(4-Chloro-1H-imidazol-1-yl)-3-methoxyphenyl)-7-(3,4-difluorophenyl)-N^4-methyl-6,7-dihydro-5H-cyclopenta[d]pyrimidine-2,4-diamine]
> 1000	–	CNc1nc(Nc2ccc(C#N)c3ccccc23)nc2c1CCC2c1ccccc1 (stereo not shown) [Example 229, 4-(4-(methylamino)-7-phenyl-6,7-dihydro-5H-cyclopenta[d]pyrimidin-2-ylamino)-1-naphthonitrile]
10 to 100	–	CNc1nc(Nc2ccc(-n3cnc(Cl)c3)c(OC)c2)nc2c1COCC2c1ccc(Cl)cc1 (stereo not shown) [Example 64, N^2-(4-(4-chloro-1H-imidazol-1-yl)-3-methoxyphenyl)-8-(4-chlorophenyl)-N^4-methyl-7,8-dihydro-5H-pyrano[4,3-d]pyrimidine-2,4-diamine]
> 1000	–	CNc1nc(Nc2ccc3c(c2)CCNC3)nc2c1CCC2c1ccccc1 (stereo not shown) [Example 245, N4-methyl-7-phenyl-N2-(1,2,3,4-tetrahydroisoquinolin-6-yl)-6,7-dihydro-5H-cyclopenta[d]pyrimidine-2,4-diamine]
–	IC50 [3]: 96 nM	COc1cc(Nc2nc3c(c(N4CC(C)(OC)C4)n2)CCC3c2ccc(F)cc2)ccc1-n1cnc(Cl)c1 (stereo not shown) [Example 191B, N-(4-(4-chloro-1H-imidazol-1-yl)-3-methoxyphenyl)-7-(4-fluorophenyl)-4-(3-methoxy-3-methylazetidin-1-yl)-6,7-dihydro-5H-cyclopenta[d]pyrimidin-2-amine]
–	IC50 [1]: 10 to 100 nM	COc1cc(Nc2nc3c(c(N4CCC4)n2)CCC3c2ccc(OC(F)(F)F)cc2)ccc1-n1cnc(Cl)c1 (single isomer, unassigned) [Example 101B, 4-(azetidin-1-yl)-N-(4-(4-chloro-1H-imidazol-1-yl)-3-methoxyphenyl)-7-(4-(trifluoromethoxy)phenyl)-6,7-dihydro-5H-cyclopenta[d]pyrimidin-2-amine]
–	IC50 [3]: 2.5 nM	COCC(Nc1nc(Nc2ccc(-n3cnc(Cl)c3)c(OC)c2)nc2c1CCC2c1ccc(F)cc1)C1CC1 (stereo not shown) [Example 45B, N2-(4-(4-chloro-1H-imidazol-1-yl)-3-methoxyphenyl)-N4-(1-cyclopropyl-2-methoxyethyl)-7-(4-fluorophenyl)-6,7-dihydro-5H-cyclopenta[d]pyrimidine-2,4-diamine]
10 to 100	–	CCNc1nc(Nc2ccc(-n3cnc(Cl)c3)c(OC)c2)nc2c1CN(C)CC2c1ccc(F)cc1 (stereo not shown) [Example 164A, N2-(4-(4-chloro-1H-imidazol-1-yl)-3-methoxyphenyl)-N4-ethyl-8-(4-fluorophenyl)-6-methyl-5,6,7,8-tetrahydropyrido[4,3-d]pyrimidine-2,4-diamine]
